Assay results reported in patent publication US6737431B2 (Bristol-Myers Squibb Company, priority 2002, dated 2004).

Tests used:
[1] = target: T1, melatonin ML1a receptor (Homo sapiens, UniProt P48039); experiment: Melatonergic receptor binding, 2-[125I]-iodomelatonin, ML1a; conditions: NIH-3T3 membranes, 0.1 nM 2-[125I]-iodomelatonin, 37° C. 1 hour
T1 construct: expressed in transfected cells; membrane homogenates
Method: (§1) Melatonergic Receptor Binding Activity
(§2) (a) TME=50 mM Tris buffer containing 12.5 mM MgCl2, and 2 mM EDTA, pH 7.4 at 37° C., with concentrated HCl.
(§3) (b) Wash buffer: 20 mM Tris base containing 2 mM MgCl2, pH 7.4 at room temperature.
(§4) (c) 10^−4 M melatonin (10^−5 M final concentration).
(d) 2-[^125I]-iodomelatonin ML1a, 0.1 nM final concentration.
(§5) 2. Membrane Homogenates: The melatonin ML1a and ML1b receptors cDNA were individually subcloned into pcDNA3 and introduced into NIH-3T3 cells using Lipofectamine. Transformed NIH-3T3 cells resistant to geneticin (G-418) were isolated, and single colonies expressing high levels of 2[^125I]-iodomelatonin binding were isolated. Cells are maintained in DMEM supplemented with 10% calf serum and G-418 (0.5 g/liter). Cells are grown to confluency in T-175 flasks, scraped using Hank's balanced salt solution, and frozen at −80° C. For preparing membrane homogenates, pellets are thawed on ice, and re-suspended in TME buffer in the presence of 10 μg/ml aprotinin and leupeptin, and 100 μM phenylmethylsulfonylfluoride. The cells were then homogenized using a dounce homogenizer, and centrifuged. The resulting pellet was re-suspended with dounce homogenizer in TME (supplemented with the above protease inhibitors) and frozen. On the day of assay, a small aliquot was thawed on ice and re-suspended in the ice cold TME (1:50-1:100 v/v) and held on ice until assayed.
(§6) 3. Incubation: 37° C. for 1 hour. Reaction is terminated by filtration. Filters were washed 3 times.
(§7) 4. References: Reppert, S. M. et al., Neuron, 13, p. 1177-1185 (1994); and Reppert, S. M. et al., Proc. Natl. Acad. Sci. USA, 92, p. 8734-8738 (1995).
(§8) The compounds of the present invention have affinity for receptors of the endogenous pineal hormone, melatonin, as determined in receptor binding assays described above in Tables I to III for the ML1a and ML1b (human) receptors. Melatonin is involved in the regulation of a variety of biological rhythms and exerts its biological effects via interaction with specific receptors. There is evidence that administration of melatonin agonists are of clinical utility in the treatment of various conditions regulated by melatonin activity. Such conditions include depression, jet-lag, work-shift syndrome, sleep disorders, glaucoma, some disorders associated with reproduction, cancer benign prostatic hyperplasia, immune disorders, and neuroendocrine disorders.

[2] = target: T2, melatonin ML1b receptor (Homo sapiens, UniProt P49286); experiment: Melatonergic receptor binding, 2-[125I]-iodomelatonin, ML1b; conditions: NIH-3T3 membranes, 0.2 nM 2-[125I]-iodomelatonin, 37° C. 1 hour
T2 construct: expressed in transfected cells; membrane homogenates
T2 sequence (P49286 1-362): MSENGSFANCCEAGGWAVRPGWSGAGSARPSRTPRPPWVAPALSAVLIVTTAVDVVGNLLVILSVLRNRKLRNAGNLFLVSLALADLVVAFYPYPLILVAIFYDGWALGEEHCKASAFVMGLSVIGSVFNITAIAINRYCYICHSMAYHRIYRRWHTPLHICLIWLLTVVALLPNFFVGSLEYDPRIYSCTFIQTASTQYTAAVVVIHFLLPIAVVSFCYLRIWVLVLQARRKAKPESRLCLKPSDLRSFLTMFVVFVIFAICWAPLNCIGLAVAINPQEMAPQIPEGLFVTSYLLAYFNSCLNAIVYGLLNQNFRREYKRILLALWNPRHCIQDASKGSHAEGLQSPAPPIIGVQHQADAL
Method: as §1, §2, §3, §4
(e) 2-[^125I]-iodomelatonin ML1b, 0.2 nM final concentration.
as §5, §6, §7, §8

T1 sequence (P48039 whole entry): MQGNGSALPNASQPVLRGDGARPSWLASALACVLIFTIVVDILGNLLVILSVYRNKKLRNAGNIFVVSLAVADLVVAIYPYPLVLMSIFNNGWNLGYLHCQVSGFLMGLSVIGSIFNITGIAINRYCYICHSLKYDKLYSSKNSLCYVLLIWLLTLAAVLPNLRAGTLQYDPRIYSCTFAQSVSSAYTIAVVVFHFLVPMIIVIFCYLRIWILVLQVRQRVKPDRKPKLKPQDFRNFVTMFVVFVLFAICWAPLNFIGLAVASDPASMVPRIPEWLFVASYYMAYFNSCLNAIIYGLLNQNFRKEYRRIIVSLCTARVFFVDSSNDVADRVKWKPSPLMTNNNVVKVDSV

| Compound | IC50 ([1]; Table I) | IC50 ([2]; Table I) | IC50 ([2]; Table II) | other results |
| --- | --- | --- | --- | --- |
| CCC(=O)NCCCc1cccc2nc(CCCCc3ccccc3)oc12 [Example 26, N-{3-[2-(4-Phenylbutyl)benzoxazol-7-yl]propyl}propanamide] | < 10 nM | 10 to 250 nM | – | – |
| CCc1nc2cc(-c3ccc(OC)cc3)cc(CCCNC(=O)C3CC3)c2o1 [Example 64, Cyclopropyl-N-{3-[2-ethyl-5-(4-methoxyphenyl)benzoxazol-7-yl]propyl}carboxamide] | – | – | > 250 nM | IC50 ([1]; Table II): > 250 nM |
| CCc1nc2ccc(-c3ccc(C(F)(F)F)cc3)c(CCCNC(C)=O)c2o1 [Example 50, N-(3-{2-Ethyl-6-[4-(trifluoromethyl)phenyl]benzoxazol-7-yl}propyl)acetamide] | – | – | 10 to 250 nM | IC50 ([1]; Table II): > 250 nM |
| CCc1nc2cccc([C@@H]3C[C@H]3CNC(C)=O)c2o1 [Example 76, N-{[(1R,2R)-2-(2-Ethylbenzoxazol-7-yl)cyclopropyl]methyl}acetamide] | – | – | – | IC50 ([1]; Table III): < 10 nM; IC50 ([2]; Table III): < 10 nM |
| CC(C)C(=O)NCCCc1cccc2nc(CCCCc3ccccc3)oc12 [Example 28, 2-Methyl-N-{3-[2-(4-phenylbutyl)benzoxazol-7-yl]propyl}propanamide] | < 10 nM | 10 to 250 nM | – | – |
| Cc1nc2cccc(CCCNC(=O)C(C)C)c2o1 [Example 5, N-[3-(2-Methyl-7-benzoxazolyl)propyl]-2-methylpropanamide] | < 10 nM | < 10 nM | – | – |
| CCCC(=O)NC[C@@H]1C[C@H]1c1cccc2nc(CC)oc12 [Example 78, N-{[(1R,2R)-2-(2-Ethylbenzoxazol-7-yl)cyclopropyl]methyl}butanamide] | – | – | – | IC50 ([1]; Table III): < 10 nM; IC50 ([2]; Table III): < 10 nM |
| CCCc1nc2cccc([C@@H]3C[C@H]3CNC(C)=O)c2o1 [Example 82, N-{[(1R,2R)-2-(2-Propylbenzoxazol-7-yl)cyclopropyl]methyl}acetamide] | – | – | – | IC50 ([1]; Table III): < 10 nM; IC50 ([2]; Table III): < 10 nM |
| CC(=O)NCCCc1cccc2nc(-c3ccccc3)oc12 [Example 19, N-[3-(2-Phenylbenzoxazol-7-yl)propyl]acetamide] | 10 to 250 nM | 10 to 250 nM | – | – |
| CCCC(=O)NCCCc1cccc2nc(CC)oc12 [Example 9, N-[3-(2-Ethylbenzoxazol-7-yl)propyl]butanamide] | 10 to 250 nM | < 10 nM | – | – |
| CCc1nc2ccc(-c3ccc(OC)cc3)c(CCCNC(=O)c3ccccc3)c2o1 [Example 53, N-{3-[2-Ethyl-6-(4-methoxyphenyl)benzoxazol-7-yl]propyl}benzamide] | – | – | > 250 nM | IC50 ([1]; Table II): > 250 nM |
| CCc1nc2ccc(-c3ccco3)c(CCCNC(=O)c3ccccc3)c2o1 [Example 74, N-[3-(2-Ethyl-6-(2-furyl)benzoxazol-7-yl)propyl]benzamide] | – | – | > 250 nM | – |
| CCCC(=O)NC[C@@H]1C[C@H]1c1cccc2nc(C(C)C)oc12 [Example 87, N-({(1R,2R)-2-[2-(Methylethyl)benzoxazol-7-yl]cyclopropyl}methyl)butanamide] | – | – | – | IC50 ([1]; Table III): < 10 nM; IC50 ([2]; Table III): < 10 nM |
| CCC(=O)NCCCc1cccc2ncoc12 [Example 32, N-(3-Benzoxazol-7-ylpropyl)propanamide] | 10 to 250 nM | < 10 nM | – | – |
| N-({(1R,2R)-2-[2-(5-Phenylbutyl)benzoxazol-7-yl]cyclopropyl}methyl)cyclopropylcarboxamide [Example 98] | – | – | – | IC50 ([1]; Table III): < 10 nM; IC50 ([2]; Table III): < 10 nM |
| CCc1nc2cc(-c3ccccc3)cc(CCCNC(=O)c3ccccc3)c2o1 [Example 66, N-[3-(2-Ethyl-5-phenylbenzoxazol-7-yl)propyl]benzamide] | – | – | > 250 nM | IC50 ([1]; Table II): > 250 nM |
| CCc1nc2ccc(-c3ccco3)c(CCCNC(=O)C3CC3)c2o1 [Example 75, Cyclopropyl-N-[3-(2-ethyl-6-(2-furyl)benzoxazol-7-yl)propyl]carboxamide] | – | – | < 10 nM | IC50 ([1]; Table II): 10 to 250 nM |

| Compound | IC50 ([1]; Table I) | IC50 ([2]; Table I) | IC50 ([2]; Table II) | other results |
| --- | --- | --- | --- | --- |
| CCc1nc2cc(-c3ccccc3)cc(CCCNC(=O)C3CC3)c2o1 [Example 67, Cyclopropyl-N-[3-(2-ethyl-5-phenylbenzoxazol-7-yl)propyl]carboxamide] | – | – | > 250 nM | IC50 ([1]; Table II): 10 to 250 nM |
| CCc1nc2cccc(CCCNC(=O)C(C)C)c2o1 [Example 10, N-[3-(2-Ethylbenzoxazol-7-yl)propyl]-2-methylpropanamide] | 10 to 250 nM | 10 to 250 nM | – | – |
| CCc1nc2ccc(-c3ccc(OC)cc3)c(CCCNC(C)=O)c2o1 [Example 52, N-{3-[2-Ethyl-6-(4-methoxyphenyl)benzoxazol-7-yl]propyl}acetamide] | – | – | < 10 nM | IC50 ([1]; Table II): 10 to 250 nM |
| CCCC(=O)NCCCc1cccc2nc(CCC)oc12 [Example 15, N-[3-(2-Propylbenzoxazol-7-yl)propyl]butanamide] | > 250 nM | 10 to 250 nM | – | – |
| CCc1nc2ccc(-c3ccc(F)cc3)c(CCCNC(=O)C3CC3)c2o1 [Example 49, Cyclopropyl-N-{3-[2-ethyl-6-(4-fluorophenyl)benzoxazol-7-yl]propyl}carboxamide] | – | – | < 10 nM | IC50 ([1]; Table II): 10 to 250 nM |
| N-({(1R,2R)-2-[2-(5-Phenylbutyl)benzoxazol-7-yl]cyclopropyl}methyl)butanamide [Example 96] | – | – | – | IC50 ([1]; Table III): < 10 nM; IC50 ([2]; Table III): < 10 nM |
| CCc1nc2ccc(-c3ccc(F)cc3)c(CCCNC(C)=O)c2o1 [Example 47, N-{3-[2-Ethyl-6-(4-fluorophenyl)benzoxazol-7-yl]propyl}acetamide] | – | – | < 10 nM | IC50 ([1]; Table II): 10 to 250 nM |
| CCc1nc2cc(Br)cc(CCCNC(C)=O)c2o1 [Example 68, N-[3-(5-Bromo-2-ethylbenzoxazol-7-yl)propyl]acetamide] | – | – | 10 to 250 nM | IC50 ([1]; Table II): > 250 nM |
| CCCC(=O)NCCCc1cccc2nc(-c3ccccc3)oc12 [Example 21, N-[3-(2-Phenylbenzoxazol-7-yl)propyl]butanamide] | 10 to 250 nM | 10 to 250 nM | – | – |
| CCC(=O)NCCCc1cccc2nc(CC)oc12 [Example 8, N-[3-(2-Ethylbenzoxazol-7-yl)propyl]propanamide] | < 10 nM | < 10 nM | – | – |
| CCC(=O)NCCCc1cccc2nc(C(C)C)oc12 [Example 35, N-{3-[2-(Methylethyl)benzoxazol-7-yl]propyl}propanamide] | 10 to 250 nM | 10 to 250 nM | – | – |
| CCCc1nc2cccc([C@@H]3C[C@H]3CNC(=O)CC)c2o1 [Example 84, N-{[(1R,2R)-2-(2-Propylbenzoxazol-7-yl)cyclopropyl]methyl}propanamide] | – | – | – | IC50 ([1]; Table III): < 10 nM; IC50 ([2]; Table III): < 10 nM |
| N-({(1R,2R)-2-[2-(5-Phenylbutyl)benzoxazol-7-yl]cyclopropyl}methyl)propanamide [Example 95] | – | – | – | IC50 ([1]; Table III): < 10 nM; IC50 ([2]; Table III): < 10 nM |
| O=C(NCCCc1cccc2nc(CCCCc3ccccc3)oc12)C1CC1 [Example 29, Cyclopropyl-N-{3-[2-(4-phenylbutyl)benzoxazol-7-yl]propyl}carboxamide] | < 10 nM | 10 to 250 nM | – | – |
| CCc1nc2cccc(CCCNC(=O)C3CC3)c2o1 [Example 11, Cyclopropyl-N-[3-(2-ethylbenzoxazol-7-yl)propyl]carboxamide] | < 10 nM | 10 to 250 nM | – | – |
| CCNC(=O)NCCCc1cccc2nc(CC)oc12 [Example 12, (Ethylamino)-N-[3-(2-ethylbenzoxazol-7-yl)propyl]carboxamide] | 10 to 250 nM | 10 to 250 nM | – | – |
| N-({(1R,2R)-2-[2-(5-Phenylbutyl)benzoxazol-7-yl]cyclopropyl}methyl)-2-methylpropanamide [Example 97] | – | – | – | IC50 ([1]; Table III): < 10 nM; IC50 ([2]; Table III): < 10 nM |
